The text below walks through data of patent US9067884B2, “Pyrrole compounds that modulate HSP90 activity” (Synta Pharmaceuticals Corp., priority 2008, dated 2015).

Where only a bound is given, the exact number is not on record here.

Assay [1] deals with Her2. Kind of assay: Degradation of Her2 in BT-474 cells (Method 1, Western blot). Type of assay: cell-based, Human. As to conditions: 0.5 μM, overnight. The procedure: Human high-Her2 breast carcinoma BT474 (HTB-20), SK-BR-3 (HTB-30) and MCF-7 breast carcinoma (HTB-22) from American Type Culture Collection, VA, USA were grown in Dulbecco's modified Eagle's medium with 4 mM L-glutamine and antibiotics (100 IU/ml penicillin and 100 μg/ml streptomycine; GibcoBRL). To obtain exponential cell growth, cells were trypsinized, counted and seeded at a cell density of 0.5×10^6 cells/ml regularly, every 3 days. All experiments were performed on day 1 after cell passage.
BT-474 cells are treated with 0.5 μM, 2 μM, or 5 μM of 17AAG (a positive control) or 0.5 μM, 2 μM, or 5 μM of a compound of the invention overnight in DMEM medium. After treatment, each cytoplasmic sample, is prepared from 1×10^6 cells by incubation of cell lysis buffer (#9803, Cell Signaling Technology) on ice for 10 minutes. The resulting supernatant used as the cytosol fractions is dissolved with sample buffer for SDS-PAGE and run on a SDS-PAGE gel, blotted onto a nitrocellulose membrane by using semi-dry transfer. Non-specific binding to nitrocellulose is blocked with 5% skim milk in TBS with 0.5% Tween at room temperature for 1 hour, then probed with anti-Her2/ErB2 mAb (rabbit IgG, #2242, Cell Signaling) and anti-Tubulin (T9026, Sigma) as housekeeping control protein. […]
For orientation: Immunoblotting shows a protein as a band on a membrane.

In assay [2] the test system is Hsp90. Description: IC50 range of compounds of the invention for  inhibition of Hsp90 (Method 2: MV-4-11 cells, Cell Counting Kit-8). Type of assay: cell-based, human. The following applies: text: IC50 range for Her2 degradation, 72 hours, cell survival by Cell Counting Kit-8. The procedure:
MV-4-11 cells (20,000 cells/well) were cultured in 96-well plates and maintained at 37° C. for several hours. The cells were treated with a compound of the invention or 17AAG (a positive control) at various concentrations and incubated at 37° C. for 72 hours. Cell survival was measured with Cell Counting Kit-8 (Dojindo Laboratories, Cat. # CK04).
In general terms: Tetrazolium dyes change colour on reduction, which living cells bring about.

Consider `C=CCNC1=C2C[C@@H](C)C[C@H](OC)[C@H](O)[C@@H](C)/C=C(\C)[C@H](OC(N)=O)[C@@H](OC)/C=C\C=C(/C)C(=O)NC(=CC1=O)C2=O` [Compound 17AAG, 17-allylamino-17-demethoxygeldanamycin], for which the “degradation of Her2” value in assay [1] is given as “partial degradation of Her2”.
The term IC50 denotes the concentration that inhibits the measured activity by half. High values mean a need for much substance, low ones inhibition by little substance. The compound `CCNC(=O)c1ccc(-c2cc(C(C)C)c(O)cc2O)n1-c1ccc(N(C)C)cc1` [Compound 3, 5-(2,4-dihydroxy-5-isopropylphenyl)-1-(4-(dimethylamino)phenyl)-N-ethyl-1H-pyrrole-2-carboxamide] yielded an IC50 in assay [2] of over 1000 nM.
